According to patent US20220062291A1, “COMPOSITIONS AND METHODS OF TREATING CANCERS BY ADMINISTERING A PHENOTHIAZINE-RELATED DRUG THAT ACTIVATES PROTEIN PHOSPHATASE 2A (PP2A) WITH REDUCED INHIBITORY ACTIVITY TARGETED TO THE DOPAMINE D2 RECEPTOR AND ACCOMPANYING TOXICITY” (DANA-FARBER CANCER INSTITUTE, INC., priority 2018, published 2022):
Like-named read-outs stand apart in the source and are kept apart here.

Assays:
KOPT-K1 cells [1] = test: KOPT-K1 cell viability (PrestoBlue), IC50 after 72 hours; assay type: cell-based, human; conditions: for IC50: 72 hours, PrestoBlue, read-out: IC50 value against KOPT-K1 cells
Method: (§1) For IC50 calculation, KOPT-K1 cells were treated with each of the compounds at various concentrations for 72 hours, followed by the determination of viable cell numbers with PrestoBlue® cell viability reagent. For the PP2A phosphatase activity assay, KOPT-K1 cells were treated with each of the compounds at 10 μM for 3 hours before phosphatase activity was measured. Dopamine D2 receptor activity was monitored in HEK293T cells coexpressing the dopamine D2 receptor, modified G protein and SRE luciferase reporter. Cells were treated with each of the compound at 10 μM for 3 hours, then lysed for the luciferase reporter assay.
For IC50 calculations, KOPT-K1 cells were treated with each of the compound at various concentrations for 72 hours, then their viability was examined by PrestoBlue® Cell Viability Reagent (Thermo Fisher Scientific). For PP2A phosphatase activity assay, KOPT-K1 cells were treated with each of the compound at 10 μM for three hours before the activity of PP2A was quantified using PP2A Immunoprecipitation Phosphatase Assay Kit (Merck Millipore®). DRD2 activity was monitored in HEK293T cells expressing DRD2, modified G protein and SRE luciferase reporter. Cells were treated with each of the compounds at 10 μM for three hours, then lysed for luciferase reporter assay. […] The biochemical assays were performed as indicated in Examples 7 and 8.

PP2A [2] = target: T1, PP2A (Homo sapiens, UniProt P30153+P67775+Q16537); test: PP2A phosphatase activity in treated KOPT-K1 cells; assay type: cell-based; conditions: KOPT-K1, 10 μM for 3 hours
T1 construct: are endogenously expressed by KOPTK1 cells; endogenous in cells; host or cells: KOPT-K1 T-ALL cells / lysates
T1 sequence (P30153 2-589): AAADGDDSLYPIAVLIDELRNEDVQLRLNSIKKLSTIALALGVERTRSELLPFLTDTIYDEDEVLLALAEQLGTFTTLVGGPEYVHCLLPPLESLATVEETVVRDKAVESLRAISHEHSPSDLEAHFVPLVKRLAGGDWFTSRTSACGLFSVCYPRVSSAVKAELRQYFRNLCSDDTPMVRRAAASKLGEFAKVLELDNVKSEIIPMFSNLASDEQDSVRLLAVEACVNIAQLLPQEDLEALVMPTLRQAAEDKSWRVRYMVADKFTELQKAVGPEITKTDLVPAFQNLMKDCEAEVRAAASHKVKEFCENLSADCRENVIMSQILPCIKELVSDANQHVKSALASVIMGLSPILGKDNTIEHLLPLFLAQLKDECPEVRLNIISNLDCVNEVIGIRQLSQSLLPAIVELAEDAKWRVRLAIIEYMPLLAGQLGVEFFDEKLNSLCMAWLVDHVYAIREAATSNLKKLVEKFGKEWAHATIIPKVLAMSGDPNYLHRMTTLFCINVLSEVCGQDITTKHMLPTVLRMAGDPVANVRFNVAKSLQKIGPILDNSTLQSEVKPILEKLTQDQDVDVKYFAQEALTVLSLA
T1 sequence (P67775 whole entry): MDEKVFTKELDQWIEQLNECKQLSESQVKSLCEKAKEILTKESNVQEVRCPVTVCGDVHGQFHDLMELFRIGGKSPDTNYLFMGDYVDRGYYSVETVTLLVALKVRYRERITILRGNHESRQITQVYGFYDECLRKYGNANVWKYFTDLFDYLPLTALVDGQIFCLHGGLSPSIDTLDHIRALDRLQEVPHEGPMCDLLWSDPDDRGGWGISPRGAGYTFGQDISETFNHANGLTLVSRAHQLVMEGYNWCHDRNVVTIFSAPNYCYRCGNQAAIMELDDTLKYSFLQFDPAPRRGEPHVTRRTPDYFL
T1 sequence (Q16537 2-467): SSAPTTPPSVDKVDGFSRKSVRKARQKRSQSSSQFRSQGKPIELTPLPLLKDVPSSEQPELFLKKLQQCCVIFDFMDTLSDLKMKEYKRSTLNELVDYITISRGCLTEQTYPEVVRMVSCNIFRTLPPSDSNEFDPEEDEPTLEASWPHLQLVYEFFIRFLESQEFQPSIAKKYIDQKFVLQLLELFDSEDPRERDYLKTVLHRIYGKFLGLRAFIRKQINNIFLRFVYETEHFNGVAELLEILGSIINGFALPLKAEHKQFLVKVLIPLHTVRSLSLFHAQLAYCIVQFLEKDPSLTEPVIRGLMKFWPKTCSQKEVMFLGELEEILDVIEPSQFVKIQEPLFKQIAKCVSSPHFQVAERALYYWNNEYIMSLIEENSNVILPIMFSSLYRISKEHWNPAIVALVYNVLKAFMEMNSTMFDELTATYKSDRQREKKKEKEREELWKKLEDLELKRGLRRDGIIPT
Method: (§2) Data are presented as means±s.d. (n=3, biological replicates). KO; knock out. **P<0.01, ***P<0.001 by student's t-test.
as §1
(§3) For IC50 calculations, KOPT-K1 cells were treated with each of the compound at various concentrations for 72 hours, then their viability was examined by PrestoBlue® Cell Viability Reagent (Thermo Fisher Scientific). […] DRD2 activity was monitored in HEK293T cells expressing DRD2, modified G protein and SRE luciferase reporter. Cells were treated with each of the compounds at 10 μM for three hours, then lysed for luciferase reporter assay. […] The biochemical assays were performed as indicated in Examples 7 and 8.

PP2A [3] = test: PP2A phosphatase activity in treated KOPT-K1 cells; assay type: cell-based, human; conditions: KOPT-K1 cells, 10 μM
Method: as §2, §1, §3

[4] = target: T2, human dopamine receptor D2 (DRD2) (Homo sapiens, UniProt P14416); test: Dopamine receptor D2 inhibition assay (SRE-luciferase reporter in HEK293T cells); assay type: cell-based; conditions: for inhibition of DRD2 signaling: 10 μM for 3 hours
T2 construct: expressed in transfected cells; host or cells: HEK293T (pcDNA3 vectors)
T2 sequence (P14416 whole entry): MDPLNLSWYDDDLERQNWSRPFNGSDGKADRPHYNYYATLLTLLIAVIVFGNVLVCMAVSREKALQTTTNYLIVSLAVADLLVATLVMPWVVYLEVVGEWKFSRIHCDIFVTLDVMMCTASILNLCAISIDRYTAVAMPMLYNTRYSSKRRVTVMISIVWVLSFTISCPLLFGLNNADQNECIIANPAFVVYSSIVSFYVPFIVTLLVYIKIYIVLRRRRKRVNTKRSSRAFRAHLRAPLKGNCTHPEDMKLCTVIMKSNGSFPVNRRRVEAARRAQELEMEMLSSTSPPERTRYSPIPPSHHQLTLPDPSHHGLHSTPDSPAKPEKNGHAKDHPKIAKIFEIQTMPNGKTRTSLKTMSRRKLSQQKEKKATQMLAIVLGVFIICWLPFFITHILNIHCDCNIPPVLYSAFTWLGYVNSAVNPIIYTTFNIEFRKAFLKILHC
Excerpt: (§4) The human dopamine receptor D2 (DRD2) and modified murine Gq5i cDNAs were inserted into pcDNA3 expression vectors. After verifying the PCR products by DNA sequencing, DRD2, Gq5i and the PathDetect pSRE-Luc Cis-Reporter Plasmid (#219080, Agilent Technologies) were transfected to HEK293T cells. As previously reported, Gq5i enables Gi/o-coupled receptor activity to be detected using a serum response element (SRE)-luciferase reporter gene (See, Conklin et al., Nature 363(6426):274-6 (1993); Al-Fulaij et al., J. Pharmacol. Exp. Ther. 321(1):298-307 (2007)). These cells were starved in FCS-free DMEM medium for six hours before incubating them with 2 μM dopamine hydrochloride (Sigma Aldrich) together with each of the compound at 0, 0.5, 1, 2 and 4 μM for three hours. The reporter activity was measured using Pierce™ Firefly Luciferase Glow Assay Kit (Thermo Fisher Scientific).
as §1
as §4, with “D2” for “D2 (DRD2)”, “363(6426):274-276” for “363(6426):274-6”, “0.5” for “0, 0.5, 1, 2 and 4”

KOPT-K1 cells [5] = test: Cell cycle status by PI flow cytometry; assay type: cell-based, human; conditions: 10 μM and 20 μM, 24 hours
Method: Relative DNA content of cells in each of the samples was determined by measuring PI (propidium iodide) staining using flow cytometry. The results are illustrated in FIG. 31A-FIG. 31B.
Relative DNA content of cells in each of the samples was determined as described above.

PP2A subunits = test: Co-immunoprecipitation of PP2A subunits (holoenzyme assembly); parameters: species or system human; conditions: KOPT-K1 cells, 10 μM, 24 hours
Excerpt: The biochemical activity of iPAP1 was further characterized by addressing whether it acts exclusively on the three identified subunits to mediate the assembly of PP2A, or whether other proteins expressed by T-ALL cells are also required. Using baculovirus vectors, each subunit of PP2A was first expressed with a C-terminal tag in Hi5 insect cells, and then purified the subunit proteins using columns with antibodies against the tags bound to agarose beads (see, Example 5, FIG. 13-FIG. 14). […] PP2A is a unique enzyme consisting of three subunits and it needs to be properly assembled into a holoenzyme before it mediates phosphatase activity. […] The protein lysates were then immunoprecipitated with anti-PPP2CA antibody or normal IgG as a control, and the precipitates were immunoblotted with antibodies specifically detecting each of the PP2A subunits. […] Nuclear and cytoplasmic fractions were separated using NE-PER™ Nuclear and Cytoplasmic Extraction Kit (Thermo Fisher Scientific), and each of the subunits of PP2A was analyzed by western blot. Histone H3 and α tubulin expression levels were used as loading controls for nuclear and cytoplasmic fractions, respectively. […] Lysates were immunoprecipitated using an anti-PPP2CA antibody, and then blotted with antibodies specific for each PP2A subunit. […] The results of a co-immunoprecipitation assay using an anti-PPP2CA antibody for immunoprecipitation in KOPT-K1 cells treated with SMAP at 10 μM or control DMSO for 24 hours before they were lysed for protein extraction are illustrated in FIG. 9B. Lysates were immunoprecipitated using an anti-PPP2CA antibody, and then blotted with antibodies specific for each PP2A subunit.

[6] = test system: KOPT-K1 cells with PP2A subunit inactivation; test: Drug sensitivity of KOPT-K1 sublines with CRISPR-Cas9 PP2A subunit knockout; assay type: cell-based, human; conditions: SMAP 5 μM, 72 hours
Method: Two gRNAs with different target sequences were designed for each subunit (#1 and #2). Control gRNAs target luciferase gene. […] Data are presented as means±s.d. (n=3-5, biological replicates). ***P<0.001 by Student's t-test (FIG. 3A).
SMAP sensitivity in KOPT-K1 cells was measured after PP2A subunit inactivation. Only each subunit of PP2A was knocked out by CRISPR-Cas9 with unique gRNAs. […] Two gRNAs with different target sequences were designed for each subunit (#1 and #2). Control gRNAs target luciferase gene. Data are presented as means±s.d. (n=3-5, biological replicates). ***P<0.001 by Student's t-test (FIG. 3B).
To identify the subunits of PP2A that are essential for the antitumor activity of iPAP1, CRISPR-Cas9 was used to establish a series of sublines of KOPT-K1 T-ALL cells, each lacking one of the 19 specific PP2A subunits (FIG.1A-FIG. 2), and to examine their sensitivity to iPAP1-induced growth inhibition.
With this panel of PP2A subunit knockout cells in hand, we analyzed the PP2A subunits required for growth suppression by SMAPs, another class of allosteric activators of PP2A (Gutierrez et al., J. Clin. Invest. 124:644-655 (2014); Sangodkar et al., J. Clin. Invest. 127:2081-2090 (2017)). […] Both the PPP2R5E and PPP2R2A regulatory subunits of PP2A were among the most highly expressed in a series of 16 different T-ALL cell lines (FIG. 5A). Thus, the assembly of structurally different heterotrimeric PP2A complexes induced with either iPAP1 or SMAP cannot be attributed to imbalances in cellular expression levels of individual PP2A subunits, but likely stems from differences in the allosteric alterations of the A subunit protein resulting from the binding of these two classes of small molecules, which have different chemical structures.

KOPT-K1 cells [7] = test: Microtubule and chromatin staining of cytospins; assay type: cell-based, human; conditions: 0.001 and 0.0001 μM, 24 hours
[8] = target: tubulin from porcine brain (Sus scrofa, UniProt P02550+P02554); test: Fluorescence-based tubulin polymerization assay; conditions: 3 μM
Sequence of tubulin from porcine brain (P02550 whole entry): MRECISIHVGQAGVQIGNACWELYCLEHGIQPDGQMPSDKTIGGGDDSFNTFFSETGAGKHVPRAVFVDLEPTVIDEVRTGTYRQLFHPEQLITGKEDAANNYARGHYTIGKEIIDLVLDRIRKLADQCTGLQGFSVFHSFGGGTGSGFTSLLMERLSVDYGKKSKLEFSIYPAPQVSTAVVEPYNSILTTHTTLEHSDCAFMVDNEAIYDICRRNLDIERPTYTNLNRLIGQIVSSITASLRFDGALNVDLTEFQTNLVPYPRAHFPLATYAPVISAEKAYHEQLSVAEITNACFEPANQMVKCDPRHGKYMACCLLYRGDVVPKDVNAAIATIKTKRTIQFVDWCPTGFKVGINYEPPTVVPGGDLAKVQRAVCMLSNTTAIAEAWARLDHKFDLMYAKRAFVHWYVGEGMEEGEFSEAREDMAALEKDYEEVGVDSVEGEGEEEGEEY
Sequence of tubulin from porcine brain (P02554 whole entry): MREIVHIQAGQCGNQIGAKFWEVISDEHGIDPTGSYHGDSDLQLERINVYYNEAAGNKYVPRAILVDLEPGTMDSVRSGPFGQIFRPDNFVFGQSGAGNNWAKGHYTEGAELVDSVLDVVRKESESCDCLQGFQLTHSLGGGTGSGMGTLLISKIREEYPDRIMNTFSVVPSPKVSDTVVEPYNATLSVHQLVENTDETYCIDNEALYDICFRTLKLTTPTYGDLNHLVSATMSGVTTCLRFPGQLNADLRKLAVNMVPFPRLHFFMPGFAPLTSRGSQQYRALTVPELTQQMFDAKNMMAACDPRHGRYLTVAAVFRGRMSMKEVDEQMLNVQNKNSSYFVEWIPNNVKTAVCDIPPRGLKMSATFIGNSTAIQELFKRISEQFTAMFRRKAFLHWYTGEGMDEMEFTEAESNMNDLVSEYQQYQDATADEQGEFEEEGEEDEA
Method: Briefly, free tubulin (2 mg/mL) in buffer supplemented with 1 mM GTP and 15% glycerol was employed. Then, the test compounds were added to tubulin solution and changes in the fluorescence intensity (ex=370 nm, em=445 nm) were measured by kinetic reading at 37° C. using SpectraMax® M5 Microplate reader (Molecular Devices LLC).

[9] = 0.5 μM for three hours with 2 μM dopamine

COc1ccc(C(=O)N2c3ccccc3Sc3ccc([N+](=O)[O-])cc32)cc1 [iPAP2]
IC50 (KOPT-K1 cells [1]; Homo sapiens, KOPTK1, 72 h): ~1000 nM

O=S(=O)(N[C@@H]1CCC[C@H](N2c3ccccc3Oc3ccccc32)[C@H]1O)c1ccc(OC(F)(F)F)cc1 [SMAP, reference compound]
IC50 (KOPT-K1 cells [1]): ~5000 nM | PP2A activation potential (PP2A [2]): much less potent than iPAP1, iPAP2, iPAP3 or iPAP4 in phosphatase activity | phosphatase activity of PP2A relative to basal level (PP2A [3]): up to twice its basal level | inhibitory activities on DRD2 [4, 9]: did not show inhibitory activities on DRD2 | inhibition of DRD2 signaling [4]: lacked DRD2 inhibitory activity | cell cycle status (KOPT-K1 cells [5]): arrested in G0/G1 phase | PP2A subunits co-immunoprecipitated with anti-PPP2CA antibody (PP2A subunits): trimeric complex nucleated by SMAP contains PPP2CA, PPP2R1A and PPP2R2A | PP2A subunits whose knockout gives resistance [6]: resistant to SMAP treatment only when the PPP2R1A, PPP2CA or PPP2R2A subunit was disrupted

C=C[C@@]1(C)CC(=O)[C@]2(O)[C@@]3(C)[C@@H](O)CCC(C)(C)[C@@H]3[C@H](O)[C@H](OC(C)=O)[C@@]2(C)O1 [forskolin, reference compound]
inhibition at 0.5 µM ([4]; HEK-293T, 0.5 μM for three hours with 2 μM dopamine): ~30%

Cc1ccccc1C(=O)N1c2ccccc2Sc2ccc(Cl)cc21 [iPAP5]
inhibitory activities on DRD2 [4, 9]: did not show inhibitory activities on DRD2

COc1ccc(C(=O)N2c3ccccc3Sc3ccc(C#N)cc32)cc1 [iPAP3]
IC50 (KOPT-K1 cells [1]; Homo sapiens, KOPTK1, 72 h): ~300 nM

CCN1CCCC1CNC(=O)c1cc(S(N)(=O)=O)ccc1OC (stereo not shown) [sulpiride, reference compound]
inhibition of DRD2 signaling [4]: strong inhibitors

COc1ccc(C(=O)N2c3ccccc3Sc3cc(C#N)ccc32)cc1 [iPAP4]
IC50 (KOPT-K1 cells [1]): 30 to 40 nM | IC50 (KOPT-K1 cells [1]; Homo sapiens, KOPTK1, 72 h): ~30 nM | IC50 lower than PPZ (KOPT-K1 cells [1]; KOPT-K1, 72 hours): ~100 fold | IC50 lower than iPAP1 (KOPT-K1 cells [1]; KOPT-K1, 72 hours): ~10 fold | PP2A activation potential (PP2A [2]): relatively high PP2A activation potential compared to PPZ | inhibition of DRD2 signaling [4]: very low inhibition of DRD2 signaling

O=c1[nH]c2ccccc2n1CCCN1CCC(n2c(=O)[nH]c3cc(Cl)ccc32)CC1 [domperidone, reference compound]
inhibition of DRD2 signaling [4]: strong inhibitors

CC[C@]1(O)C[C@H]2CN(CCc3c([nH]c4ccccc34)[C@@](C(=O)OC)(c3cc4c(cc3OC)N(C=O)[C@H]3[C@@](O)(C(=O)OC)[C@H](OC(C)=O)[C@]5(CC)C=CCN6CC[C@]43[C@@H]65)C2)C1 [vincristine, reference compound]
mitotic and microtubule phenotype (KOPT-K1 cells [7]): without detectable microtubules | inhibition of tubulin polymerization [8]: markedly inhibited tubulin polymerization
